Measurements from ChEMBL document CHEMBL1151001, “Nonpeptide angiotensin II receptor antagonists: the discovery of DMP 581 and DMP 811” (Bioorg Med Chem Lett, 1994).

What was measured:
Rattus norvegicus [1] = species on record: Rattus norvegicus; assay: Oral antihypertensive potency expressed as effective dose that lowers the mean arterial blood pressure by 30 mm Hg in renal hypertensive rats; assay type: functional
Rattus norvegicus [2] = assay: Antihypertensive potency expressed as effective dose (iv) that lowers the mean arterial blood pressure by 30 mm Hg in renal hypertensive rats.; assay type: functional; settings: Artery
[3] = Oral bioavailability; assay type: ADME, organism-based, Canis lupus familiaris; settings: dog, in vivo
[4] = Oral bioavailability in dog (dosed as neat powder in hard gelatin capsule); assay type: ADME, organism-based, Canis lupus familiaris; settings: in vivo

CCCc1nc(CC)c(C(=O)O)n1Cc1ccc(-c2ccccc2-c2nnn[nH]2)cc1
ED30 (Rattus norvegicus [1]): 0.03 mg/kg | ED30 (Rattus norvegicus [2]): 0.005 mg/kg | bioavailability [3]: 15%

CCCc1nc(C(C)C)c(C(=O)O)n1Cc1ccc(-c2ccccc2-c2nn[nH]n2)cc1
ED30 (Rattus norvegicus [1]): 0.11 mg/kg

CCCc1nc(CC)c(C(=O)OCc2oc(=O)oc2-c2ccccc2)n1Cc1ccc(-c2ccccc2-c2nn[nH]n2)cc1
ED30 (Rattus norvegicus [1]): 0.3 mg/kg

CCCc1nc(CC)c(C(=O)OCc2oc(=O)oc2C(C)(C)C)n1Cc1ccc(-c2ccccc2-c2nn[nH]n2)cc1
ED30 (Rattus norvegicus [1]): 0.1 mg/kg

CCCc1nc(CC)c(C(=O)OC(C)OC(=O)OC)n1Cc1ccc(-c2ccccc2-c2nn[nH]n2)cc1 (configuration not stated)
ED30 (Rattus norvegicus [1]): 0.02 mg/kg

CCCc1nc(CC(C)C)c(C(=O)O)n1Cc1ccc(-c2ccccc2-c2nn[nH]n2)cc1
ED30 (Rattus norvegicus [1]): 0.87 mg/kg

CCCc1nc(CCC)n(Cc2ccc(-c3ccccc3-c3nn[nH]n3)cc2)c1C=O
ED30 (Rattus norvegicus [1]): 0.3 mg/kg

CCCc1nc(CC)c(C(=O)OCOC(=O)OC)n1Cc1ccc(-c2ccccc2-c2nn[nH]n2)cc1
ED30 (Rattus norvegicus [1]): 0.03 mg/kg

CCCc1nc(C)c(C=O)n1Cc1ccc(-c2ccccc2-c2nn[nH]n2)cc1
ED30 (Rattus norvegicus [1]): 0.1 mg/kg

CCCc1nc(C(C)(C)C)c(C(=O)O)n1Cc1ccc(-c2ccccc2-c2nn[nH]n2)cc1
ED30 (Rattus norvegicus [1]): 0.35 mg/kg

CCCc1nc(CCC)n(Cc2ccc(-c3ccccc3-c3nn[nH]n3)cc2)c1C(=O)O
ED30 (Rattus norvegicus [1]): 0.63 mg/kg

CCCc1nc(C(C)(C)C)c(C=O)n1Cc1ccc(-c2ccccc2-c2nn[nH]n2)cc1
ED30 (Rattus norvegicus [1]): 0.048 mg/kg

CCCc1nc(CC)c(C(=O)OCOC(=O)OC(C)(C)C)n1Cc1ccc(-c2ccccc2-c2nn[nH]n2)cc1
ED30 (Rattus norvegicus [1]): 0.02 mg/kg

CCCc1nc(C(C)CC)c(C=O)n1Cc1ccc(-c2ccccc2-c2nn[nH]n2)cc1 (configuration not stated)
ED30 (Rattus norvegicus [1]): 0.33 mg/kg

CCCc1nc(CC)c(C(=O)OCOC(=O)C(C)(C)C)n1Cc1ccc(-c2ccccc2-c2nn[nH]n2)cc1
ED30 (Rattus norvegicus [1]): 0.03 mg/kg

CCCc1nc(CC)c(C=O)n1Cc1ccc(-c2ccccc2-c2nnn[nH]2)cc1
bioavailability [4]: 70% | ED30 (Rattus norvegicus [1]): 0.027 mg/kg | ED30 (Rattus norvegicus [2]): 0.11 mg/kg | bioavailability [3]: ~100%

CCCCc1nc(CCC)n(Cc2ccc(-c3ccccc3-c3nn[nH]n3)cc2)c1C=O
ED30 (Rattus norvegicus [1]): 1 mg/kg

CCCc1nc(CC)c(C(=O)OCOC(=O)C(C)C)n1Cc1ccc(-c2ccccc2-c2nn[nH]n2)cc1
ED30 (Rattus norvegicus [1]): 0.03 mg/kg

CCCc1nc(CC)c(C(=O)OCc2oc(=O)oc2C)n1Cc1ccc(-c2ccccc2-c2nn[nH]n2)cc1
ED30 (Rattus norvegicus [1]): 0.1 mg/kg

CCCc1nc(CC)c(C(=O)OC(C)OC(=O)OC(C)(C)C)n1Cc1ccc(-c2ccccc2-c2nn[nH]n2)cc1 (configuration not stated)
ED30 (Rattus norvegicus [1]): 0.3 mg/kg

CCCc1nc(CC(C)C)c(C=O)n1Cc1ccc(-c2ccccc2-c2nn[nH]n2)cc1
ED30 (Rattus norvegicus [1]): 0.29 mg/kg

CCCc1nc(C(C)CC)c(C(=O)O)n1Cc1ccc(-c2ccccc2-c2nn[nH]n2)cc1 (configuration not stated)
ED30 (Rattus norvegicus [1]): 0.46 mg/kg

CCCCc1nc(CCC)n(Cc2ccc(-c3ccccc3-c3nn[nH]n3)cc2)c1C(=O)O
ED30 (Rattus norvegicus [1]): 1.3 mg/kg

CCCc1nc(C)c(C(=O)O)n1Cc1ccc(-c2ccccc2-c2nn[nH]n2)cc1
ED30 (Rattus norvegicus [1]): 0.19 mg/kg

CCCc1nc(C(C)C)c(C=O)n1Cc1ccc(-c2ccccc2-c2nn[nH]n2)cc1
ED30 (Rattus norvegicus [1]): 0.13 mg/kg

CCCc1nc(C(F)(F)C(F)(F)F)c(C(=O)O)n1Cc1ccc(-c2ccccc2-c2nnn[nH]2)cc1
bioavailability [4]: 12% | ED30 (Rattus norvegicus [1]): 0.21 mg/kg | ED30 (Rattus norvegicus [2]): 0.042 mg/kg

CCCCc1nc(Cl)c(C(=O)O)n1Cc1ccc(-c2ccccc2-c2nn[nH]n2)cc1 [CARBOXYLIC ACID METABOLITE]
ED30 (Rattus norvegicus [1]): 0.66 mg/kg | ED30 (Rattus norvegicus [2]): 0.038 mg/kg

CCCCc1nc(Cl)c(CO)n1Cc1ccc(-c2ccccc2-c2nnn[nH]2)cc1 [LOSARTAN]
ED30 (Rattus norvegicus [1]): 0.59 mg/kg | ED30 (Rattus norvegicus [2]): 0.8 mg/kg
